Results reported in the NIST ThermoML archive (doi:10.1016/j.jct.2019.02.011).

Test: xn = mol fraction of the nth substance listed
Conditions: Liquid, Vibrating tube method

COC(=O)OC [dimethyl carbonate] + CCO
mass density [kg/m3]
Conditions | 100 kPa | 5000 kPa | 10000 kPa | 15000 kPa | 20000 kPa | 25000 kPa | 30000 kPa | 35000 kPa | 40000 kPa
293.15 K, x1 = 0.0252 | – | – | – | 811.64 | 815.31 | 819.03 | 822.43 | 825.77 | 828.8
293.15 K, x1 = 0.0506 | – | – | – | 821.2 | 824.93 | 828.7 | 832.16 | 835.5 | 838.59
293.15 K, x1 = 0.0757 | – | – | – | 830.53 | 834.27 | 838.04 | 841.5 | 844.9 | 848.05
293.15 K, x1 = 0.1003 | – | – | – | 839.43 | 843.17 | 846.95 | 850.46 | 853.86 | 857.02
293.15 K, x1 = 0.1508 | – | – | – | 857.39 | 861.19 | 864.97 | 868.5 | 871.96 | 875.19
293.15 K, x1 = 0.2 | – | – | – | 874.34 | 878.21 | 882.03 | 885.62 | 889.09 | 892.34
293.15 K, x1 = 0.2547 | – | – | 888.37 | 892.5 | 896.38 | 900.3 | 903.95 | 907.43 | 910.71
293.15 K, x1 = 0.3002 | – | – | 903.11 | 907.24 | 911.13 | 915.06 | 918.71 | 922.25 | 925.54
293.15 K, x1 = 0.3498 | – | – | 918.65 | 922.78 | 926.73 | 930.66 | 934.33 | 937.83 | 941.14
293.15 K, x1 = 0.4 | – | – | 933.81 | 937.95 | 941.91 | 945.85 | 949.52 | 953.08 | 956.41
293.15 K, x1 = 0.449 | – | – | 948.11 | 952.25 | 956.22 | 960.16 | 963.84 | 967.41 | 970.75
293.15 K, x1 = 0.4996 | – | – | 962.37 | 966.52 | 970.5 | 974.44 | 978.13 | 981.71 | 985.12
293.15 K, x1 = 0.5507 | – | – | 976.3 | 980.45 | 984.45 | 988.38 | 992.09 | 995.67 | 999.1
293.15 K, x1 = 0.6005 | – | – | 989.41 | 993.51 | 997.52 | 1001.46 | 1005.17 | 1008.76 | 1012.2
293.15 K, x1 = 0.6455 | – | – | 1000.79 | 1004.95 | 1008.96 | 1012.9 | 1016.62 | 1020.22 | 1023.68
293.15 K, x1 = 0.6931 | – | – | 1012.44 | 1016.6 | 1020.62 | 1024.56 | 1028.29 | 1031.89 | 1035.36
293.15 K, x1 = 0.7502 | – | – | 1025.93 | 1030.04 | 1034.07 | 1038.07 | 1041.8 | 1045.41 | 1048.9
293.15 K, x1 = 0.8009 | – | – | 1037.44 | 1041.56 | 1045.6 | 1049.6 | 1053.34 | 1056.96 | 1060.46
293.15 K, x1 = 0.8505 | – | – | 1048.32 | 1052.45 | 1056.49 | 1060.49 | 1064.24 | 1067.85 | 1071.38
293.15 K, x1 = 0.9008 | – | – | 1058.94 | 1063.09 | 1067.15 | 1071.17 | 1074.9 | 1078.5 | 1082.06
293.15 K, x1 = 0.9255 | – | – | 1064.04 | 1068.18 | 1072.28 | 1076.27 | 1080.01 | 1083.62 | 1087.15
293.15 K, x1 = 0.9477 | – | – | 1068.54 | 1072.7 | 1076.81 | 1080.81 | 1084.52 | 1088.13 | 1091.64
293.15 K, x1 = 0.9735 | – | – | 1073.72 | 1077.83 | 1081.94 | 1085.94 | 1089.66 | 1093.25 | 1096.74
293.15 K, x1 = 1 | – | – | 1078.93 | 1083.01 | 1087.08 | 1091.03 | 1094.75 | 1098.34 | 1101.84
298.15 K, x1 = 0.0252 | 795.08 | 799.26 | 803.35 | 807.39 | 811.05 | – | – | – | –
298.15 K, x1 = 0.0506 | 804.43 | 808.65 | 812.8 | 816.89 | 820.61 | – | – | – | –
298.15 K, x1 = 0.0757 | 813.64 | 817.91 | 822.06 | 826.15 | 829.93 | – | – | – | –
298.15 K, x1 = 0.1003 | 822.42 | 826.69 | 830.89 | 834.98 | 838.77 | – | – | – | –
298.15 K, x1 = 0.1508 | 840.14 | 844.46 | 848.67 | 852.81 | 856.66 | – | – | – | –
298.15 K, x1 = 0.2 | 856.81 | 861.18 | 865.45 | 869.59 | 873.46 | – | – | – | –
298.15 K, x1 = 0.2547 | 874.78 | 879.19 | 883.47 | 887.66 | 891.55 | – | – | – | –
298.15 K, x1 = 0.3002 | 889.24 | 893.65 | 897.98 | 902.17 | 906.13 | – | – | – | –
298.15 K, x1 = 0.3498 | 904.6 | 909.01 | 913.35 | 917.59 | 921.56 | – | – | – | –
298.15 K, x1 = 0.4 | 919.63 | 924.09 | 928.49 | 932.73 | 936.77 | – | – | – | –
298.15 K, x1 = 0.449 | 933.8 | 938.26 | 942.66 | 946.91 | 950.95 | – | – | – | –
298.15 K, x1 = 0.4996 | 947.93 | 952.44 | 956.85 | 961.1 | 965.16 | – | – | – | –
298.15 K, x1 = 0.5507 | 961.74 | 966.24 | 970.71 | 974.95 | – | – | – | – | –
298.15 K, x1 = 0.6005 | 974.67 | 979.17 | 983.64 | 987.89 | – | – | – | – | –
298.15 K, x1 = 0.6455 | 985.93 | 990.48 | 994.96 | 999.21 | – | – | – | – | –
298.15 K, x1 = 0.6931 | 997.5 | 1002.05 | 1006.53 | 1010.78 | – | – | – | – | –
298.15 K, x1 = 0.7502 | 1010.81 | 1015.36 | 1019.85 | 1024.1 | – | – | – | – | –
298.15 K, x1 = 0.8009 | 1022.25 | 1026.8 | 1031.29 | 1035.55 | – | – | – | – | –
298.15 K, x1 = 0.8505 | 1033.01 | 1037.56 | 1042.06 | 1046.31 | – | – | – | – | –
298.15 K, x1 = 0.9008 | 1043.58 | 1048.13 | 1052.63 | 1056.89 | – | – | – | – | –
298.15 K, x1 = 0.9255 | 1048.64 | 1053.19 | 1057.7 | 1061.95 | – | – | – | – | –
298.15 K, x1 = 0.9477 | 1053.11 | 1057.69 | 1062.19 | 1066.43 | – | – | – | – | –
298.15 K, x1 = 0.9735 | 1058.28 | 1062.83 | 1067.34 | 1071.56 | – | – | – | – | –
298.15 K, x1 = 1 | 1063.45 | 1068 | 1072.51 | 1076.72 | – | – | – | – | –
